Assay results reported in patent publication US8486863B2, “Activators of lateral root formation” (VIB VZW, priority 2006, dated 2013).

Legend:
[1] = test system: auxin signaling mutants; experiment: Effect of activators on lateral root density of auxin signaling mutants (Table 2); format: in vivo, Arabidopsis thaliana; details: 30 uM
Source text: Afb1, Afb2, Afb3 and the triple mutant Tirlafb2afb3 were described by Dhamasiri et al. (2005). Tir1 was described by Ruegger et al., (1998); 1aa28 by Rogg et al., (2001); Tir7-1 by Ruegger et al., (1997); the Cyp79b2b3 double mutant by Ljung et al. (2005); the arf7arf19 double mutant by Fukaki et al., (2005); Aux1 by Bennett et al., (1996); Xbat32 by Nodzon et al., (2004), Axr1-12 by Timpte et al., (1995), Slr1 by Fukaki et al., 2002 and Axr3-1 by Collet et al., (2000) and the mutants were obtained from the publishing authors.
For phenotypic analysis, all mutants were grown on vertically oriented square plates (Greiner Labortechnik, Austria) with solid medium derived from standard MS medium. The plates were put in a growth chamber under continuous light (110 μE.m2.s1 photosynthetically active radiation, supplied by cool-white fluorescent tungsten tubes; Osram) at 22° C. Three days after germination, the mutant plants were transferred to medium supplemented with compounds and were left to grow for another 7 days. After this, root length and number of lateral roots were counted using ImageJ 1.34 freeware.

[2] = test system: genes involved in auxin biosynthesis, auxin transport, auxin signaling and cell cycle; experiment: Q-PCR transcript profiling of roots after compound treatment; format: in vivo, Arabidopsis thaliana; details: 30 μM; 6 hrs or 24 hrs treatment
Description: FIG. 5: Transcript profiling of roots of wild-type Arabidopsis thaliana plants after 6 hrs or 24 hrs treatment with A2 (upper panel), A14 (middle panel) or A11 (lower panel) at a concentration of 30 μM.
RNA was extracted with the RNeasy kit. Poly(dT) cDNA was prepared from […] of total RNA with Superscript III reverse transcriptase (Invitrogen) and quantified on an LightCycler 480 apparatus (Roche) with the SYBR Green I Master kit (Roche) according to the manufacturers instructions. Target quantifications were performed with specific primer pairs designed with the Beacon Designer 4.0 (Premier Biosoft International). All PCRs were performed in triplicate. […] The primers used to quantify gene expression levels were: […]
Using Q-PCR, the expression of selected genes involved in auxin biosynthesis, auxin transport, auxin signaling and cell cycle was analyzed in response to compound treatment (FIG. 5).

[3] = test system: Wild-type Arabidopsis thaliana; experiment: Dose-response analysis of lateral root density and root length; format: in vivo; details: dose-response, FIG. 3
Description: FIG. 3: Dose-response analysis of class 1 (upper panel) and class 2 (lower panel) activators. Wild-type Arabidopsis thaliana seeds were germinated under standard conditions on agar plates. After 3 days of germination, seedlings were transferred to agar plates containing compound at different concentrations. Lateral root density was measured 10 days after germination. Bars represent standard errors.
FIG. 4: Dose-response analysis of A2, A11, A12, A14 and NAA. Wild-type Arabidopsis thaliana seeds were germinated under standard conditions on agar plates. After 3 days of germination, seedlings were transferred to agar plates containing compound at different concentrations and 1% DMSO. Plants transferred to agar plates containing 1% DMSO and no compound were used as controls. Lateral root density (left panels) and root length (right panels) were measured 10 days after germination. Bars represent standard errors.
For further phenotypic analysis, all plants were grown on vertically oriented square plates (Greiner Labortechnik, Austria) with solid medium derived from standard MS medium under the same conditions. 3 DAG plants were transferred to medium supplemented with compounds and were left to grow for another 7 days. After this, root length and number of LRs were counted using ImageJ 1.34 freeware.
As a subsequent step, the phenotypic effect of the 16 selected activators was determined in a dose-response analysis in which LR density (number of LRs per cm) was quantified (FIG. 3). Based upon potency and structure, two different classes of activators could be identified.

`CCOC(=O)c1c(NC(=O)COc2ccc(Cl)cc2C)sc2c1CC(C)(C)OC2` [A2, ethyl 2-{[(4-chloro-2-methylphenoxy)acetyl]amino}-5,5-dimethyl-4,7-dihydro-5H-thieno[2,3-c]pyran-3-carboxylate] gave a lateral root density ([1]; Afb1-1) of 13.86 LR/cm, a lateral root density ([1]; Afb2-1) of 10.07 LR/cm and a lateral root density ([1]; Afb3-1) of 10.03 LR/cm. It also gave a lateral root density ([1]; Arf7Arf19) of 0.00 LR/cm, a lateral root density ([1]; Arf16) of 9.56 LR/cm and a lateral root density ([1]; Arf17) of 8.67 LR/cm. It also gave a lateral root density ([1]; Axrt-12) of 13.97 LR/cm, a lateral root density ([1]; Cyp79) of 13.69 LR/cm and a lateral root density ([1]; Iaa28-1) of 4.32 LR/cm. It also gave a lateral root density ([1]; Tir1-1) of 11.98 LR/cm, a lateral root density ([1]; Tir7-1) of 28.57 LR/cm and a lateral root density ([1]; TirTM) of 0.00 LR/cm. For the same compound, the lateral root density ([1]; Xbat32) was 9.67 LR/cm, the “stage of LR initiation at which the effect on gene expression is exerted” value [2] was “early stages of LR initiation (6 h)” and the “potency as activator of LR development (LR density)” value [3] was “most potent activators of class 2”.
